The values that follow come from US20150297629A1, “MODULATION OF RENIN-ANGIOTENSIN SYSTEM (RAS) RELATED DISEASES BY ANGIOTENSINOGEN” (Isis Pharmaceuticals, Inc,, priority 2012, published 2015).

In experiment [1] the test system is angiotensinogen mRNA. As to the kind of experiment: Real-time PCR of angiotensinogen mRNA in SHR tissues, Study 3. In kind it is in vivo, Spontaneously hypertensive (SHR) rats. The conditions noted are these: 3 weeks, oligonucleotides 100 mg/kg/week, Captopril 150 mg/kg/day. The method, then: (§1) A group of SHR was injected with 100 mg/kg/week of ISIS 552668 administered for 3 weeks. A control group of SHR was injected with phosphate buffered saline (PBS) administered weekly for 3 weeks. Another control group of SHR was injected with 100 mg/kg/week of a control oligonucleotide (a nucleotide not targeted to angiotensinogen) administered for 3 weeks.
[…] The mRNA levels were normalized using the housekeeping gene, GAPDH. […] Results are presented as percent inhibition of angiotensinogen, relative to control.
(In general: Real-time PCR tracks product formation cycle by cycle.)

In experiment [2] the test system is SHR. As to the kind of experiment: Mean arterial pressure by tail-cuff method in SHR, Study 3. The conditions noted are these: ISIS 552668 and control oligonucleotide 100 mg/kg/week, Captopril 150 mg/kg/day. In kind it is in vivo, Spontaneously hypertensive (SHR) rats. The protocol:
A control group of SHR was injected with phosphate buffered saline (PBS) administered weekly for 3 weeks. Another control group of SHR was injected with 100 mg/kg/week of a control oligonucleotide (a nucleotide not targeted to angiotensinogen) administered for 3 weeks. […] Mean arterial pressure (MAP) in the rats was measured by the tail-cuff volume-pressure method (Kent Scientific, Torrington, Conn.).

The subject of experiment [3] is female SHR rats. Description: Blood pressure by tail-cuff method in female SHR rats with subsequent Captopril, Study 2. In kind it is in vivo, Spontaneously hypertensive (SHR) rats. The conditions noted are these: Captopril 50 mg/kg/day for 4 days, no ASO. The method, then:
A control group of female SHR rats was injected with phosphate buffered saline (PBS) administered weekly for 2 weeks. Another control group constituted a group of wild-type rats injected with phosphate buffered saline (PBS) administered weekly for 2 weeks. […] Systolic blood pressure (SBP), mean arterial pressure (MAP), and diastolic blood pressure (DBP) in the rats was measured by the tail-cuff volume-pressure method (Kent Scientific, Torrington, Conn.).

Experiment [4] deals with Dahl/SS rats. As to the kind of experiment: Blood pressure by tail-cuff method in Dahl/SS rats. In kind it is in vivo, Dahl/Salt Sensititive (Dahl/SS) rats. The conditions noted are these: female Dahl/SS rats, 8% NaCl diet; 3 weeks; ISIS oligonucleotides 40 mg/kg/week, Captopril 150 mg/kg daily. The method, then: The rats were fed a diet with 8% NaCl. A group of female Dahl/SS rats was injected with 40 mg/kg/week of ISIS 552668 administered for 3 weeks. A group of female Dahl/SS rats was injected with 40 mg/kg/week of control oligonucleotides ISIS 141923 administered for 3 weeks. […] A control group of female Dahl/SS rats was injected with phosphate buffered saline (PBS) administered weekly for 3 weeks. Another control group constituted a group of Dahl/Salt Resistant (Dahl/SR) rats injected with phosphate buffered saline (PBS) administered weekly for 3 weeks.
Systolic blood pressure (SBP), mean arterial pressure (MAP), and diastolic blood pressure (DBP) in the rats was measured by the tail-cuff volume-pressure method (Kent Scientific). The results are presented in Table 12, expressed as the percent decrease in blood pressure compared to the control SHR group.

Experiment [5] has as its system renin mRNA. Description: Real-time PCR of kidney renin mRNA in SHR, Study 3. The conditions noted are these: 3 weeks. In kind it is in vivo, Spontaneously hypertensive (SHR) rats. The method, then: A control group of SHR was injected with phosphate buffered saline (PBS) administered weekly for 3 weeks. Another control group of SHR was injected with 100 mg/kg/week of a control oligonucleotide (a nucleotide not targeted to angiotensinogen) administered for 3 weeks. […] RNA was extracted from kidney tissue for real-time PCR analysis of renin, using primer probe set rRenin2 (forward sequence [NT], designated herein as SEQ ID NO: 21; reverse sequence [NT], designated herein as SEQ ID NO: 22; probe sequence [NT], designated herein as SEQ ID NO: 23). The mRNA levels were normalized using the housekeeping gene, GAPDH. […] Increase in renin in the body is deleterious to the overall health of the animal (Nguyen and Muller, The Biology of the (Pro)Renin Receptor, J Am Soc Nephrol, 2010 January, 21(1):18-23). […] Results are presented as percent expression of renin, relative to control.

Experiment [6] deals with SHR. Description: Systolic blood pressure by tail-cuff method in SHR before and after ISIS 552668 added to chronic Captopril, Study 4. As to conditions: for Blood pressure (SBP), After ISIS 552668 dosing: then 50 mg/kg ISIS 552668 added. In kind it is in vivo, Spontaneously hypertensive (SHR) rats.
Experiment [7] deals with angiotensinogen protein. Description: ELISA of angiotensinogen plasma levels in SHR, Study 3. Type of experiment: in vivo, Spontaneously hypertensive (SHR) rats. As to conditions: 3 weeks, oligonucleotides 100 mg/kg/week, Captopril 150 mg/kg/day. The method, then:
as §1
Angiotensinogen plasma levels were measured by ELISA (IBL International, Toronto, Canada). […] Results are presented as percent inhibition of angiotensinogen, relative to PBS control.
Background: ELISA stands for enzyme-linked immunosorbent assay.

Where [8] appears, read: Captopril 25 mg/kg/day for 10 weeks.
Where [9] appears, read: Captopril 50 mg/kg/day for 10 weeks.
Setting [10] is: Captopril 100 mg/kg/day for 10 weeks.

The structures appear in SMILES notation.

On to `C[C@H](CS)C(=O)N1CCC[C@H]1C(=O)O` [Captopril, reference compound], for which, in experiment [1], the “Percent inhibition of angiotensinogen mRNA compared to the PBS control, Heart” value is listed as 0%; the “Percent inhibition of angiotensinogen mRNA compared to the PBS control, Kidney” value is reported as 41%; the “Percent inhibition of angiotensinogen mRNA compared to the PBS control, Liver” value was found to be 0%. Moreover, in experiment [2], the “MAP, Week 1” value is listed as 107 mm Hg; the “MAP, Week 2” value is 109 mm Hg; the “MAP, Week 3” value came out at 112 mm Hg. Further, in experiment [3], the DBP is given as 97 mm Hg, the MAP is given as 113 mm Hg and the SBP came out at 145 mm Hg. In experiment [4], this compound displayed a DBP of 111 mm Hg, an MAP of 128 mm Hg and an SBP of 162 mm Hg. Besides, in experiment [5] (Captopril 150 mg/kg/day versus ISIS 552668 100 mg/kg/week), the “Induction of kidney renin expression compared to that with ISIS 552668” value is recorded as “about three-fold”. Moreover, the “Percent increase of kidney renin mRNA” value in experiment [5] (oligonucleotides 100 mg/kg/week, Captopril 150 mg/kg/day, PBS = 100) came to 1110%. Besides, in experiment [6] (setting [8]), the “Blood pressure (SBP), Before ISIS 552668 dosing” value is reported as 159 and the “Blood pressure (SBP), After ISIS 552668 dosing” value came out at 153. In addition, in experiment [6] (setting [9]), the “Blood pressure (SBP), Before ISIS 552668 dosing” value came to 147 and the “Blood pressure (SBP), After ISIS 552668 dosing” value is 133. Besides, in experiment [6] (setting [10]), the “Blood pressure (SBP), Before ISIS 552668 dosing” value is reported as 137 and the “Blood pressure (SBP), After ISIS 552668 dosing” value is listed as 127. Further, in experiment [6] (Captopril 200 mg/kg/day for 10 weeks), the “Blood pressure (SBP), Before ISIS 552668 dosing” value was 135. The “Percent inhibition of angiotensinogen protein in the plasma compared to the PBS control” value in experiment [7] is listed as 24%.
